Data published in US20150030566A1, “ANTIMICROBIAL PEPTIDE COMPOSITIONS FOR PLANTS” (Stellenbosch University, priority 2012, published 2015).
Residues, ends and D or L forms follow the SMILES beside them.

Tests used:
Phaeoacremonium = test: Hydration tank assay, spore viability; assay type: cell-based
Procedure: (§1) This loss of activity in solution was, however, overcome by increasing the Trx mix concentration to 20 mg/L. It must also be emphasized that the Trc mix activity was tested at 10 times (10^7 spores/L) the spore concentration used for the testing of commercial fungicides and at 100 times the spore concentration usually observed in contaminated grapevine material (personal communication with the Department of Plant pathology, Stellenbosch University).
(§2) The activities of the GS and Trc mix were also assessed in the presence of and absence of grapevine stem material in a simulated hydration tank environment. Each 5.0 mL assay contained fungal spores at 10 000 spores/mL, peptide at 10 and 20 μg/mL and grapevine stem material. Grapevine stem material was washed with 70% ethanol and rinsed with sterile water before placement in inoculated hydration tanks, whereafter the Trc mix was added. Controls contained either the peptide or grapevine stem material. The assays were incubated at room temperature for 16 hours, whereafter three 100 μl aliquots of each assay were plated on PDA agar and allowed to grow for three days at 25° C. Some plates were stained with Coomassie brilliant blue stain (0.025% Coomassie, 12.5% isopropanol and 10% acetic acid) for better visualization of the fungal colonies. The number of colonies that developed after three days was recorded and expressed as percentage viable spores after comparing to the control samples which contained no peptide.

Phomopsis = test: Hydration tank assay, spore viability; assay type: cell-based; details: 10 μg/ml peptide
Procedure: as §1, §2

Cylindrocarpon = test: Hydration tank assay, spore viability; assay type: cell-based
Procedure: as §1, §2

[1] = system: Micrococcus luteus NCTG 8340; test: Agar assay; assay type: cell-based; set-up: unit not given beside the values
Procedure: (§3) Microdilution broth and agar assays were used to assess the antifungal activity of the cyclic decapeptides in liquid media and on solid (gel) media, respectively.
(§4) The antibacterial activity of the tyrocidines and gramicidin S against all the bacteria tested was determined by the methods described by Du Toit E A and Rautenbach M (2000) J. Microbiol. Methods, 42, 159-165. The antifungal activity of the tyrocidines against all the […] tested was determined by the methods described by Troskie A M, Vlok N M and Rautenbach M (2012) J. Microbiol. Methods, 91, 551-558.

Escherichia coli HB101 = test: Agar assay; assay type: cell-based; set-up: unit not given beside the values
Procedure: as §3, §4

[2] = system: Cylindrocarpon liriodendri; test: Agar assay; assay type: cell-based; set-up: unit not given beside the values
Procedure: as §3, §4

[3] = system: Talaromyces ramulosus (peach isolate); test: Agar assay; assay type: cell-based; set-up: unit not given beside the values
Procedure: as §3, §4

Phomopsis viticola = test: Agar assay; assay type: cell-based; set-up: unit not given beside the values
Procedure: as §3, §4

[4] = system: Grapevine tissue culture plants; test: Plant culture assay, growth and development of plantlets; assay type: in vivo; details: 15 mg/L in MS medium
Procedure: (§5) The Trc mix and GS were also tested for use in the sterilization of field-gathered grapevine material for use in plant cultures.
Grapevine tissue culture plants were transferred to MS medium containing GS or Trc mix at a concentration of 15 μg/mL and incubated at 25° C. with a 16 h/8 h day night cycle. The growth and development of the grapevine plantlets were monitored and compared to the control set of plants which were maintained on MS-medium without GS or Trc mix.

Botrytis cinerea = test: Agar (gel) assay; assay type: cell-based; set-up: MIC + SEM: unit not given beside the values
Procedure: as §3, §4

bacteria = test: Sterilization of field-gathered grapevine material, antibacterial efficacy; assay type: in vivo; details: selected cases
Procedure: as §5

In the case of `CC(C)C[C@@H]1NC(=O)[C@H](CCCN)NC(=O)[C@H](C(C)C)NC(=O)C2CCCN2C(=O)[C@@H](Cc2ccccc2)NC(=O)[C@H](CC(C)C)NC(=O)[C@H](CCCN)NC(=O)[C@H](C(C)C)NC(=O)C2CCCN2C(=O)[C@@H](Cc2ccccc2)NC1=O` (some centres unmarked) [GS, Cyclo-(VOLfPVOLfP)] (HELM PEPTIDE1{L.[dF].[O=C(C1CCCN1[*:1])[*:2]].V.[Orn].L.[dF].[O=C(C1CCCN1[*:1])[*:2]].V.[Orn]}$PEPTIDE1,PEPTIDE1,1:R1-10:R2$$$V2.0), the “percentage viable spores compared to the growth/survival controls” value (Phaeoacremonium; +gvs, 10 μg/ml peptide) is reported as 0%, the “percentage viable spores compared to the growth/survival controls” value (Phaeoacremonium; +gvs, 20 μg/ml peptide) is reported as 0% and the “percentage viable spores compared to the growth/survival controls” value (Phaeoacremonium; −gvs, 10 μg/ml peptide) is reported as 0%. For the same compound, the “percentage viable spores compared to the growth/survival controls” value (Phaeoacremonium; −gvs, 20 μg/ml peptide) was 0%, the “percentage viable spores compared to the growth/survival controls” value (Phomopsis; +gvs) was 0% and the “percentage viable spores compared to the growth/survival controls” value (Phomopsis; −gvs) was 0%. The “percentage viable spores compared to the growth/survival controls” value (Cylindrocarpon; +gvs, 10 μg/ml peptide) was 0%, the “percentage viable spores compared to the growth/survival controls” value (Cylindrocarpon; +gvs, 20 μg/ml peptide) was 0% and the “percentage viable spores compared to the growth/survival controls” value (Cylindrocarpon; −gvs, 10 μg/ml peptide) was 0%. The “percentage viable spores compared to the growth/survival controls” value (Cylindrocarpon; −gvs, 20 μg/ml peptide) was 0%, the “MIC + SEM” value [1] was 6 and the “MIC + SEM” value (Escherichia coli HB101) was 40. The “MIC + SEM” value [2] was <10, the “MIC + SEM” value [3] was 3.6 ± 0.3 and the “MIC + SEM” value (Phomopsis viticola) was <10. For the same compound, the “effect on root growth” value [4] was “root growth was visibly affected”, the “effect on plant culture survival and growth” value ([4]; vs control plants) was “enhanced plant culture survival and foliage growth” and the “MIC + SEM” value (Botrytis cinerea; Agar, Botrytis cinerea) was 2.5 ± 0.3. The “IC50 ± SEM” value (Botrytis cinerea; B. cinerea on PDA) was 2.0 ± 0.3 µg/mL, the “MIC ± SEM” value (Botrytis cinerea; B. cinerea on PDA) was 2.8 ± 0.3 µg/mL and the “IC50 ± SEM” value (Botrytis cinerea; B. cinerea on YTSA) was 4.5 ± 1.1 µg/mL. For the same compound, the “MIC ± SEM” value (Botrytis cinerea; B. cinerea on YTSA) was 8.2 ± 1.8 µg/mL and the antibacterial efficacy (bacteria) was “good antibacterial activity”.
